Data reported in patent publication US9309261B2, “Spirooxindole derivative and process for producing the same” (OKINAWA INSTITUTE OF SCIENCE AND TECHNOLOGY SCHOOL …, priority 2012, dated 2016).

Key:
[1] = Cytotoxicity: K562 cell growth inhibition (Cell Counting Kit-8, WST-8); assay type: cell-based; details: human, K562 cells
Procedure: K562 cells (American Type Culture Collection) were cultured in a culture medium containing 10% (v/v) fetal calf serum (FCS) (manufactures by Sigma) to logarithmic phase. The cells were seeded in 96-well microtiter plate at a density of 5000 cells/well in 100 μL cell culture medium and incubated at 37° C. and 5% CO2 in a humidified incubator overnight. The test compounds of various concentrations were added in a well at 10 fold concentration in 1/10 volume of medium without FCS. After 6-48 hrs incubation at 37° C. in the CO2 incubator, 10 μL solution of the viable cell counting reagent, Cell counting Kit-8 (5 mmol/L WST-8, 0.2 mmol/L 1-Methoxy PMS, 150 mmol/L NaCl) (manufactured by Dojindo) was added to each well, and reacted for 1 to 4 hours in the CO2 incubator. After the incubation, an absorbance of formazan, generated by reduction of WST-8 was determined at 450 nm using a microplate reader.
The assay readout is correlated with the viable cell numbers. Small values correspond to high inhibition and larger values to low inhibition of the cell growth. To determine IC50 values (i.e. the concentration inhibiting the cell growth by 50%) of the compound of formula I, several assays were made with a range of concentrations chosen empirically to give low, high and intermediate inhibition of the growth and determined using the curve fitting software.
IC50 values can be converted logarithmically to pIC50 values (−log IC50), in which higher values indicate exponentially greater potency. The IC50 value is not an absolute value but depends on experimental conditions e.g. concentrations employed.

[2] = tested on: tumor cells in which both WNT and KRas signaling pathways are activated; test: Selective lethality to tumor cells with activated WNT and KRas signaling; assay type: cell-based
Hexokinase-II (HK-II) = target: T1, Hexokinase-II (HK-II) (Homo sapiens, UniProt P52789); test: Hexokinase 2 inhibition (Transcreener ADP2 assay); assay type: biochemical; details: read-out: HK-II Inhibition ADP-FP (% inhibition at 20 μM)
T1 sequence (P52789 1-917): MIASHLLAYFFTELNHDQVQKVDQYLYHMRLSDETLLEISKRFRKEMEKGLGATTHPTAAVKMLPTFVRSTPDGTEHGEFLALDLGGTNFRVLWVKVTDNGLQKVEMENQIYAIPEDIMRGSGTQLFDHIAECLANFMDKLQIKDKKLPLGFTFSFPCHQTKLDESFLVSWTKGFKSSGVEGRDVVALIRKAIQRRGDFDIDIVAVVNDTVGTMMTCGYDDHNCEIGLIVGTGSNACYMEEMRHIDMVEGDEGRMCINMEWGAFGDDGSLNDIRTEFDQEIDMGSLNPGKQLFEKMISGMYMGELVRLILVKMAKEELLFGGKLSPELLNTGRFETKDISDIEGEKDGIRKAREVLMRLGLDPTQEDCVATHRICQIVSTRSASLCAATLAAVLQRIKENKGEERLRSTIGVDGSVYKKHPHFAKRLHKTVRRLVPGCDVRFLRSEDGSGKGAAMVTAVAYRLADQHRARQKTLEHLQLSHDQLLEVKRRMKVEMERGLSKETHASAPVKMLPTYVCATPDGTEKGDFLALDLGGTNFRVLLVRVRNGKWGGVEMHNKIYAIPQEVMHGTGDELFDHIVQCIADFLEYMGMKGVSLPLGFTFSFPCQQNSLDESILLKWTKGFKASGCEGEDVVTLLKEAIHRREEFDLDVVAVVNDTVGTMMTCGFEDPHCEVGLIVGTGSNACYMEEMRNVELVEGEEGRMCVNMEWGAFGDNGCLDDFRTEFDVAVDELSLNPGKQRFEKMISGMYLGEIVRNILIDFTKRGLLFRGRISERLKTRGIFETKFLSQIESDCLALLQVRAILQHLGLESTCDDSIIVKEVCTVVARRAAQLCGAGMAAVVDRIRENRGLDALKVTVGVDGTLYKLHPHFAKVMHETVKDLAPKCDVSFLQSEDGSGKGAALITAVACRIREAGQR
Description: It is well known that tumor cells mainly rely on glycolysis for energy generation and intermediary metabolism, a phenomenon known as the Warburg effect. Hexokinase-II (HK-II), a key enzyme of glycolysis, catalyzes the first step in the conversion of glucose to glucose-6-phosphate. HK-II is highly expressed in many types of tumors and its expression is correlated with glucose uptake, tumor aggressiveness, and poor survival prognosis. Inhibition of HK-II activity attenuates tumor cell growth and induces apoptosis.
The test compounds were added to a typical reaction mixture of HK-II, and the produced ADP concentrations were determined using Transcreener® ADP^2 FI Assay (BellBrook Labs, Madison, Wis., USA).

Structure (SMILES)	melting point [°C]	IC50 ([1]; sample with no ee given) [µM]	activity selectively lethal to tumor cells in which both WNT and KRas signaling pathways are activated [2]	other results
CCC[C@@H]1C/C(=N/NS(=O)(=O)c2ccc(C)cc2)C[C@@]2(O1)C(=O)Nc1ccccc12 (stereo in doubt)	197 to 199			
CCC[C@@H]1CC(=O)C[C@@]2(O1)C(=O)Nc1cccc(Cl)c12 [Compound 3ab, (2′S,6′R)-4-chloro-6′-propyl-5′,6′-dihydrospiro[indoline-3,2′-pyran]-2,4′(3′H)-dione]		15	selectively lethal	
CCC[C@@H]1CC(=O)C[C@@]2(O1)C(=O)Nc1cccc(Br)c12 [Compound 3ac, (2′S,6′R)-4-bromo-6′-propyl-5′,6-dihydrospiro[indoline-3,2′-pyran]-2,4′(3′H)-dione]			selectively lethal	IC50 ([1]; sample of 82% ee): 16 µM
CCC[C@@H]1CC(=O)C[C@@]2(O1)C(=O)Nc1ccc(Br)cc12 [Compound 3ae, (2′S,6′R)-5-bromo-6′-propyl-5′,6′-dihydrospiro[indoline-3,2′-pyran]-2,4′(3′H)-dione]		20	selectively lethal	
CCC[C@@H]1CC(=O)C[C@@]2(O1)C(=O)Nc1cc(Cl)ccc12 [Compound 3af, (2′S,6′R)-6-chloro-6′-propyl-5′,6′-dihydrospiro[indoline-3,2′-pyran]-2,4′(3′H)-dione]		21	selectively lethal	
O=C1C[C@H](c2ccccc2)O[C@@]2(C1)C(=O)Nc1ccccc12 [Compound 3ja, (2′R,6′R)-6′-phenyl-5′,6′-dihydrospiro[indoline-3,2′-pyran]-2,4′(3′H)-dione]			selectively lethal	inhibition at 20 µM (Hexokinase-II (HK-II)): 33.8%
CCC[C@@H]1C[C@@H](O)C[C@@]2(O1)C(=O)Nc1ccccc12 [Compound 5, (2′S,4′R,6′R)-4′-hydroxy-6′-propyl-3′,4′,5′,6′-tetrahydrospiro[indoline-3,2′-pyran]-2-one]	169 to 171	> 245		IC50 ([1]; sample of 92% ee): > 245 µM
CCC[C@@H]1C[C@@H](NCc2ccccc2)C[C@@]2(O1)C(=O)Nc1ccccc12 [Compound 6, (2′S,4′R,6′R)-4′-(benzylamino)-6-propyl-3′,4′,5′,6-tetrahydrospiro[indoline-3,2′-pyran]-2-one]				inhibition at 20 µM (Hexokinase-II (HK-II)): 37.7%
C=CC[C@@]1(O)C[C@@H](CCC)O[C@]2(C1)C(=O)Nc1ccccc12 [Compound 7, (2′S,4′R,6′R)-4′-allyl-4′-hydroxy-6-propyl-3′,4′,5′,6-tetrahydrospiro[indoline-3,2′-pyran]-2-one]	189 to 191	> 212		IC50 ([1]; sample of 87% ee): > 212 µM

More lines, main results first:

melting point [°C]	Structure (SMILES)	IC50 ([1]; sample with no ee given) [µM]	activity selectively lethal to tumor cells in which both WNT and KRas signaling pathways are activated [2]	other results
118 to 120	CCC[C@@H]1CC(=O)C[C@@]2(O1)C(=O)Nc1ccccc12 [Compound 3aa, (2′S,6′R)-6′-Propyl-5′,6′-dihydrospiro[indoline-3,2′-pyran)-2,4′(3′H)-dione]	125		IC50 ([1]; sample of 99% ee): 130 µM
199 to 201	O=C1C[C@@H](CCN2C(=O)c3ccccc3C2=O)O[C@]2(C1)C(=O)Nc1ccccc12 [Compound 3ga, (2′S,6′R)-6′-(2-(1,3-dioxoisoindolin-2-yl)ethyl)-5′,6′-dihydrospiro[indoline-3,2′-pyran]-2,4′(3′H)-dione]			IC50 ([1]; sample of 91% ee): 113 µM
